Key:
Details in all cases: Compound concentration 1000.0 nM
[1] = biological target: T1, Tyrosine-protein kinase JAK3 (Homo sapiens) (UniProt P52333)
T1 sequence (whole entry): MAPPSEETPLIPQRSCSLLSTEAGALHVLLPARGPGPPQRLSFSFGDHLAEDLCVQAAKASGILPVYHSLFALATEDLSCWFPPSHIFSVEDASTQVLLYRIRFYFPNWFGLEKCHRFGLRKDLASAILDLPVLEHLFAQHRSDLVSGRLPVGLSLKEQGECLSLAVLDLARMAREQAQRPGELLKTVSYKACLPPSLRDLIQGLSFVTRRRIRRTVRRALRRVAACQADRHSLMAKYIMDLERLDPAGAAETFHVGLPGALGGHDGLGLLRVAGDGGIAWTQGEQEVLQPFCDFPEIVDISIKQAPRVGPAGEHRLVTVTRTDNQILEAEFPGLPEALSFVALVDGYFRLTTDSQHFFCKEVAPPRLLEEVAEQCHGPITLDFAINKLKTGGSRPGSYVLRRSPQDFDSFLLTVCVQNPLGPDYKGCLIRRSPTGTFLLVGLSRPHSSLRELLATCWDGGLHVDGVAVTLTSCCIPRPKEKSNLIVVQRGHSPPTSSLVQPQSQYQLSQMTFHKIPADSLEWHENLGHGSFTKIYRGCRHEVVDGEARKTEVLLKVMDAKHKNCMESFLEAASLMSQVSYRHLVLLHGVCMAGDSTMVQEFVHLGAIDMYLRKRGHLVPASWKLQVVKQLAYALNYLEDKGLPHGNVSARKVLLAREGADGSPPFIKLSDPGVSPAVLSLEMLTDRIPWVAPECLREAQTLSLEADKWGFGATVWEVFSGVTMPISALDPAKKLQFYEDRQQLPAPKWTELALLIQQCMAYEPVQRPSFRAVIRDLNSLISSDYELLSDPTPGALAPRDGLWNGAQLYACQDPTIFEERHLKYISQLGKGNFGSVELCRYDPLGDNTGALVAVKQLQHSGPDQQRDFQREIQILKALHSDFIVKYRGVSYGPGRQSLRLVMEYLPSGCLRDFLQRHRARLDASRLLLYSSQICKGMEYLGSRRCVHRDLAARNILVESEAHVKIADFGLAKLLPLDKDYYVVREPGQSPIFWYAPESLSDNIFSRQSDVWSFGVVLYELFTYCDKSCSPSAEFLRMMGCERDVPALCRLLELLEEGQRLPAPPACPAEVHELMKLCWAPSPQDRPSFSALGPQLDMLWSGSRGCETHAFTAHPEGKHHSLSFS

[2] = biological target: Phosphatidylinositol 4,5-bisphosphate 3-kinase catalytic subunit gamma isoform (Homo sapiens) (UniProt P48736)
[3] = system: ALK tyrosine kinase receptor (Homo sapiens), Q9UM73 [L1196M]
[4] = biological target: Activin receptor type-1-like (Homo sapiens) (UniProt P37023)
[5] = biological target: Mitogen-activated protein kinase 11 (Homo sapiens) (UniProt Q15759)
[6] = biological target: Serine/threonine-protein kinase pim-1 (Homo sapiens) (UniProt P11309)
[7] = biological target: Serine/threonine-protein kinase 32A (Homo sapiens) (UniProt Q8WU08)
[8] = biological target: Serine/threonine-protein kinase WNK4 (Homo sapiens) (UniProt Q96J92)
[9] = biological target: 5'-AMP-activated protein kinase catalytic subunit alpha-2 (Homo sapiens) (UniProt P54646)
[10] = biological target: Membrane-associated tyrosine- and threonine-specific cdc2-inhibitory kinase (Homo sapiens) (UniProt Q99640)
[11] = biological target: Protein kinase C delta type (Homo sapiens) (UniProt Q05655)
[12] = biological target: Serine/threonine-protein kinase SIK2 (Homo sapiens) (UniProt Q9H0K1)
[13] = biological target: Myosin-IIIb (Homo sapiens) (UniProt Q8WXR4)
[14] = biological target: Receptor tyrosine-protein kinase erbB-3 (Homo sapiens) (UniProt P21860)
[15] = biological target: T2, Cytoplasmic tyrosine-protein kinase BMX (Homo sapiens) (UniProt P51813)
T2 sequence (whole entry): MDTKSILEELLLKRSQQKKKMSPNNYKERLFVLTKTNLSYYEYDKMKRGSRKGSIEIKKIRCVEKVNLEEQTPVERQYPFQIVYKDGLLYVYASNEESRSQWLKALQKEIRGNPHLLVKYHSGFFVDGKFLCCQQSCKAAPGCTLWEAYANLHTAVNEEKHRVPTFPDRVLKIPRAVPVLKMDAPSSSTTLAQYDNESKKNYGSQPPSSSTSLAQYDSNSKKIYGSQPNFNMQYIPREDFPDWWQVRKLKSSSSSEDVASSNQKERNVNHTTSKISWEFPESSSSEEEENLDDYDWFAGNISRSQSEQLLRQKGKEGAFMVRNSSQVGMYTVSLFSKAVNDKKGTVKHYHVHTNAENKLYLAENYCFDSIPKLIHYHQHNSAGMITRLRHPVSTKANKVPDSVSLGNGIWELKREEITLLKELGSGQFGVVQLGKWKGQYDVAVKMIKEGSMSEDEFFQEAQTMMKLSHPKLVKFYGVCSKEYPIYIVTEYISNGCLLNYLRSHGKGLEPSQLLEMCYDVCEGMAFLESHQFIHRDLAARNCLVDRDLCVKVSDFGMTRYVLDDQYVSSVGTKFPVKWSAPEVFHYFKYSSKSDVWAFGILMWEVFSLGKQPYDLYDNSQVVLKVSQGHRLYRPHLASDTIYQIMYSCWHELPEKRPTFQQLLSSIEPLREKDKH

Measured: residual activity

Phosphatidylinositol 4,5-bisphosphate 3-kinase catalytic subunit gamma isoform (Homo sapiens), sequence (P48736 whole entry, looked up, canonical isoform): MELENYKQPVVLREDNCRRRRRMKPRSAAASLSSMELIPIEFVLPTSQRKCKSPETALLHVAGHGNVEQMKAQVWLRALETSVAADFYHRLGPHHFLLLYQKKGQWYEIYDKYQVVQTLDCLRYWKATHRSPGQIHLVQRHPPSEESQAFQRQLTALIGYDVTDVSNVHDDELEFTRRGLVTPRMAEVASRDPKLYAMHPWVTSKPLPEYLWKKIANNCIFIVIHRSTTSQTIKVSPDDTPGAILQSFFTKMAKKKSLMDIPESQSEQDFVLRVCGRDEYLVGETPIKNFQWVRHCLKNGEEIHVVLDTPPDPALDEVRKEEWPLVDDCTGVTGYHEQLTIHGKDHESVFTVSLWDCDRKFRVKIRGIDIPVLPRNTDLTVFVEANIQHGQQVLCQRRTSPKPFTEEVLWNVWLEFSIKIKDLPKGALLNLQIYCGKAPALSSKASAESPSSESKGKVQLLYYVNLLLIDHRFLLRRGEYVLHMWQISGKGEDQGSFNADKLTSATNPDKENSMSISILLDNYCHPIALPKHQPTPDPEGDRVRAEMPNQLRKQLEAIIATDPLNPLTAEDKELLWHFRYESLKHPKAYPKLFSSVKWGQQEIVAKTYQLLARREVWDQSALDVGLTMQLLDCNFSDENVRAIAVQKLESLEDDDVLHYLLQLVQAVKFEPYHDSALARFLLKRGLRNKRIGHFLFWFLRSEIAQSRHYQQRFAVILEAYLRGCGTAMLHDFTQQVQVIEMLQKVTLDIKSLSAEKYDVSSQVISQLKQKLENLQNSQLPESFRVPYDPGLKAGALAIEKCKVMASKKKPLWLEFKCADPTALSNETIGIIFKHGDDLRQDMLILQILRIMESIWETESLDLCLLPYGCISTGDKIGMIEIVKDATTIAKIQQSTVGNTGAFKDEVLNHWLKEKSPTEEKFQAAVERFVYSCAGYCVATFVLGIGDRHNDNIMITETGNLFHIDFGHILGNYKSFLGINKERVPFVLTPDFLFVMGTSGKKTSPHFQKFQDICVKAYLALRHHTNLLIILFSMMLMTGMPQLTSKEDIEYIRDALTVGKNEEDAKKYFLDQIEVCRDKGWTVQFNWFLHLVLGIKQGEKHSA
Serine/threonine-protein kinase 32A (Homo sapiens), sequence (Q8WU08 whole entry): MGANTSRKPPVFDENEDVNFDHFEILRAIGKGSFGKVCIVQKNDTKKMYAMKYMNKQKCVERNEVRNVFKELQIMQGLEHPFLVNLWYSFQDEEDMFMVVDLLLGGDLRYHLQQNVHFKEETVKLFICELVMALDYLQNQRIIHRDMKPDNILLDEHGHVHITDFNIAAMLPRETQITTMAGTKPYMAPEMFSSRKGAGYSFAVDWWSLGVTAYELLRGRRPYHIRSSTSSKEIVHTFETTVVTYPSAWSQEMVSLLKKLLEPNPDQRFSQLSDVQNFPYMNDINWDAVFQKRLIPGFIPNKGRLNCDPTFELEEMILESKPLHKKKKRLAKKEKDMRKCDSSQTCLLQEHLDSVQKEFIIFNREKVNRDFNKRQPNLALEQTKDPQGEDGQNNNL
Receptor tyrosine-protein kinase erbB-3 (Homo sapiens), sequence (P21860 whole entry): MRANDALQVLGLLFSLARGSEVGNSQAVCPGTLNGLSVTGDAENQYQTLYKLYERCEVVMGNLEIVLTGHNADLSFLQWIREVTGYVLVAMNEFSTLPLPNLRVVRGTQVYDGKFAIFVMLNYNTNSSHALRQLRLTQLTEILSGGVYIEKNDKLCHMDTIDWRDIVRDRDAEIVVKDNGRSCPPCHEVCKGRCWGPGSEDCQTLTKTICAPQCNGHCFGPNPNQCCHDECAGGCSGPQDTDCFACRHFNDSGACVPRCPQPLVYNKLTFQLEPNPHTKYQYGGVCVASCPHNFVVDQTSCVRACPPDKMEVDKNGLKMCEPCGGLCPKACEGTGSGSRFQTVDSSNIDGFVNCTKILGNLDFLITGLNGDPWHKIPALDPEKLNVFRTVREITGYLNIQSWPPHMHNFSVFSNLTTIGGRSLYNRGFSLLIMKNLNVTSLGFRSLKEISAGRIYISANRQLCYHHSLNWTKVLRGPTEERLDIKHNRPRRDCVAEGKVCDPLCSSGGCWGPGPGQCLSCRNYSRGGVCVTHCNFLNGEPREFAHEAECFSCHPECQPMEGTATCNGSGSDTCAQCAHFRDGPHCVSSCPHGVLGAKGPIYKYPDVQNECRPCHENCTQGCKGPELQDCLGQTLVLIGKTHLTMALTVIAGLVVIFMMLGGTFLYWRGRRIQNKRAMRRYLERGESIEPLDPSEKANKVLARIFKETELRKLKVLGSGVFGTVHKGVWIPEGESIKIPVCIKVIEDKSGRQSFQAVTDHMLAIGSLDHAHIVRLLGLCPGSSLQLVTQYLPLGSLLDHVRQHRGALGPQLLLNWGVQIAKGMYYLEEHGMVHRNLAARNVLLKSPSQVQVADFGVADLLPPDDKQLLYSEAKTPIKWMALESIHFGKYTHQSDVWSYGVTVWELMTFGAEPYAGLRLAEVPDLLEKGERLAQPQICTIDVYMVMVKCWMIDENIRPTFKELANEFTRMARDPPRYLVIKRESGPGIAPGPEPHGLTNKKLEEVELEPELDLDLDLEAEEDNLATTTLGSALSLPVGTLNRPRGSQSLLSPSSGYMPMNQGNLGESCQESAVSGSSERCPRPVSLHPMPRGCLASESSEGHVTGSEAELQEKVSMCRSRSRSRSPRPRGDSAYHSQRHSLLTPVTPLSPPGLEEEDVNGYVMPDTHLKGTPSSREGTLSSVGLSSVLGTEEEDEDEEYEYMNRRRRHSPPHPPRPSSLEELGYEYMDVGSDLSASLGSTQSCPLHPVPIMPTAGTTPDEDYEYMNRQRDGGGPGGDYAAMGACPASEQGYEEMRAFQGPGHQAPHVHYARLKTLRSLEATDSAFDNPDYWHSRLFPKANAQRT
5'-AMP-activated protein kinase catalytic subunit alpha-2 (Homo sapiens), sequence (P54646 whole entry, looked up): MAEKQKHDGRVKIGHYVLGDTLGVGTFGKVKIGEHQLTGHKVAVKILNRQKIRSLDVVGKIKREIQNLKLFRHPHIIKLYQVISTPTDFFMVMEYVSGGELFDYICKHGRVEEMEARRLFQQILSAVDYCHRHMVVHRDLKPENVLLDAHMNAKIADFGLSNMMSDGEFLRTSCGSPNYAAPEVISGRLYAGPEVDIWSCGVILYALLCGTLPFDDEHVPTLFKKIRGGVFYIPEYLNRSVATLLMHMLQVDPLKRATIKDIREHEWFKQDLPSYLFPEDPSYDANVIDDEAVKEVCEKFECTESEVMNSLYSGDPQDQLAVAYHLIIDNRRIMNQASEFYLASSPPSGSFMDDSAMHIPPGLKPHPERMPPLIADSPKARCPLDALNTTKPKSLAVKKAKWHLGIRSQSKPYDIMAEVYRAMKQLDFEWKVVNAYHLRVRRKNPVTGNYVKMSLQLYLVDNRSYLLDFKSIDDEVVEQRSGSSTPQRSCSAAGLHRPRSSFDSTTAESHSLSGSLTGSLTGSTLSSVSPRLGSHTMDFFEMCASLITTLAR
Myosin-IIIb (Homo sapiens), sequence (Q8WXR4 whole entry): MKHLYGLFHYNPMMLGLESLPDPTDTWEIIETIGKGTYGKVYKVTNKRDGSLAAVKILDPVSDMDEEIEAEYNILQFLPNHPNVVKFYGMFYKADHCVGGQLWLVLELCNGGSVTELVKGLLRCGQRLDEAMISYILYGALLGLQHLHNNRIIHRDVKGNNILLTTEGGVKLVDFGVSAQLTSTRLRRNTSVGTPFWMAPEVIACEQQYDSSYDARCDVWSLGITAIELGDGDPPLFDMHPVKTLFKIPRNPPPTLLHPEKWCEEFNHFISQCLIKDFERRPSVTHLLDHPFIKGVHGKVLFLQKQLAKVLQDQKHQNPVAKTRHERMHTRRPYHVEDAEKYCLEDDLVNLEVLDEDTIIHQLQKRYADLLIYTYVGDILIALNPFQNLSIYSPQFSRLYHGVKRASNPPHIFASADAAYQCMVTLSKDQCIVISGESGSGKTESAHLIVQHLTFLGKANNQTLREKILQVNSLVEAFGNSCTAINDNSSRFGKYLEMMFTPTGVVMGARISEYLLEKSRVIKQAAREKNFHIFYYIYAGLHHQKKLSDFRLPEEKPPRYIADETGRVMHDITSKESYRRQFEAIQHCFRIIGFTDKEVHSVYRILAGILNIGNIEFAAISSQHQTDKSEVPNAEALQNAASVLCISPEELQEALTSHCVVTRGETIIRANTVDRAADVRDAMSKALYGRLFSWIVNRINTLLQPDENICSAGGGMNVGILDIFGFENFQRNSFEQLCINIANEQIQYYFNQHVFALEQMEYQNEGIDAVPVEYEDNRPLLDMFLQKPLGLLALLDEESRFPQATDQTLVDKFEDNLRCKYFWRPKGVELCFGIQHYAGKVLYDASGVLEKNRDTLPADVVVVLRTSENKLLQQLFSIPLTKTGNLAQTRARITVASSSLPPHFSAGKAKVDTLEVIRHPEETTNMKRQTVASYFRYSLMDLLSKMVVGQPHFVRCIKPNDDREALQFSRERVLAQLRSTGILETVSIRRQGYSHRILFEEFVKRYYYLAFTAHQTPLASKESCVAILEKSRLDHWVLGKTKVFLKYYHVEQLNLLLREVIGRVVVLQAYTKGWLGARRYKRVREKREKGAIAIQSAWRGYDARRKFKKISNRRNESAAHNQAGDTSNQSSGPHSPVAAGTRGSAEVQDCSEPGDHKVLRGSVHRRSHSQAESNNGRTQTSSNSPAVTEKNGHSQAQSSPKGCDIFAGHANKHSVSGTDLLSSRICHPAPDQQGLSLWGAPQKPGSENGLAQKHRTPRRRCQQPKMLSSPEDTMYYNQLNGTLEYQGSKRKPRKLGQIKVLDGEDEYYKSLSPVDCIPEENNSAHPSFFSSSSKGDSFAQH
Serine/threonine-protein kinase pim-1 (Homo sapiens), sequence (P11309 whole entry, looked up): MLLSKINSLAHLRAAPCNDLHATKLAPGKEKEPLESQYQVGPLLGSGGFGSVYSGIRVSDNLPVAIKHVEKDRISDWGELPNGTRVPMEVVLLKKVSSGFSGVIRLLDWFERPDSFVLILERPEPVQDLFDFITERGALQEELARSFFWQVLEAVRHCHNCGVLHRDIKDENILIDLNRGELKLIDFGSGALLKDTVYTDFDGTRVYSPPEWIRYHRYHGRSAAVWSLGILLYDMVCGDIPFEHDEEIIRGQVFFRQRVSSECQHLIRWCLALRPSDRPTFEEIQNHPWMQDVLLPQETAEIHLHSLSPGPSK

CN(C)C(=O)Cn1cc(-c2nc(C3(c4ccc(-c5cnc(N)nc5)cc4)CC3)no2)cn1 [BI 0153]
inactive: [1] 80% | [2] 85% | [3] 92% | [4] 86% | [5] 86% | [6] 100% | [7] 97% | [8] 80% | [9] 86% | [10] 90% | [11] 67% | [12] 100% | [13] 100% | [14] 87% | [15] 88%

CN(C)C(=O)Cn1cc(-c2nc([C@@](C)(c3ccc(-c4cnc(N)nc4)cc3)C3CC3)no2)cn1 [BI 665915]
inactive: [1] 95% | [2] 72% | [3] 90% | [4] 84% | [5] 97% | [6] 100% | [7] 83% | [8] 93% | [9] 100% | [10] 88% | [11] 98% | [12] 93% | [13] 70% | [14] 95% | [15] 93%

Source: ChEMBL document CHEMBL4507276 (2021)
